Values after ≈ are worked out from the molar mass of the structure shown.
Legend:
M. bovis NCTC 10131 = assay: microbe, parasite or virus in culture; type: cell-based; details: NCTC10131, 144 h
[1] = test system: M. bovigenitalium ATCC 14173; assay: Anti-mycoplasmal activity in vitro MIC; type: cell-based; details: 144 h
M. hyorhinis ATCC 25021 = assay: Anti-mycoplasmal activity in vitro MIC; type: cell-based; details: Mesomycoplasma hyorhinis, ATCC25021, 144 h
M. gallisepticum S6 = assay: Anti-mycoplasmal activity in vitro MIC; type: cell-based; details: Mycoplasmoides gallisepticum, S6, 144 h
M. suipneumoniae LABER = assay: Anti-mycoplasmal activity in vitro MIC; type: cell-based; details: Mesomycoplasma hyopneumoniae, 144 h
M. suipneumoniae HK (2) = assay: Anti-mycoplasmal activity in vitro MIC; type: cell-based; details: Mesomycoplasma hyopneumoniae, 144 h; M. suipneumoniae HK (2); Friis broth, 0.9% agarose, 6 days 37° C.; read-out: M.I.C.
S. dublin S7 = assay: Veterinary bacteria MIC; type: cell-based; details: Salmonella enterica; S. dublin S7; Diagnostic Sensitivity Test Agar, 18 hours 37° C.; read-out: M.I.C.
Procedure: (§1) The values were determined using a two fold serial dilutions in Diagnostic Sensitivity Test Agar with an inoculum of 10^4 organisms and incubation for 18 hours at 37° C.

[2] = test system: Staph. aureus 152 (pen. sens); assay: Veterinary bacteria MIC; type: cell-based; details: Staphylococcus aureus, Diagnostic Sensitivity Test Agar, 18 hours 37° C.
Procedure: as §1

E. coli El = assay: Veterinary bacteria MIC; type: cell-based; details: Escherichia coli; E. coli El; Diagnostic Sensitivity Test Agar, 18 hours 37° C.; read-out: M.I.C.
Procedure: as §1

Strep. agalactiae SPA1 = assay: Veterinary bacteria MIC; type: cell-based; details: Streptococcus agalactiae, Diagnostic Sensitivity Test Agar, 18 hours 37° C.
Procedure: as §1

Bord. bronchiseptica B08 = assay: Veterinary bacteria MIC; type: cell-based; details: Bordetella bronchiseptica; Bord. bronchiseptica B08; Diagnostic Sensitivity Test Agar, 18 hours 37° C.; read-out: M.I.C.
Procedure: as §1

Strep. dysgalactiae SPD1 = assay: Veterinary bacteria MIC; type: cell-based; details: Streptococcus dysgalactiae, Diagnostic Sensitivity Test Agar, 18 hours 37° C.
Procedure: as §1

Past. haemolytica PA5 = assay: Veterinary bacteria MIC; type: cell-based; details: Mannheimia haemolytica; Past. haemolytica PA5; Diagnostic Sensitivity Test Agar, 18 hours 37° C.; read-out: M.I.C.
Procedure: as §1

S. typhimurium S18 = assay: Veterinary bacteria MIC; type: cell-based; details: Salmonella enterica; S. typhimurium S18; Diagnostic Sensitivity Test Agar, 18 hours 37° C.; read-out: M.I.C.
Procedure: as §1

[3] = test system: Corynebacterium pyogenes CY1; assay: Veterinary bacteria MIC; type: cell-based; details: Trueperella pyogenes; Corynebacterium pyogenes CY1; Diagnostic Sensitivity Test Agar, 18 hours 37° C.; read-out: M.I.C.
Procedure: as §1

Past. multocida PA1 = assay: Veterinary bacteria MIC; type: cell-based; details: Pasteurella multocida, Diagnostic Sensitivity Test Agar, 18 hours 37° C.
Procedure: as §1

[4] = test system: Erysipelothrix rhusiopathiae NCTC 8163; assay: Veterinary bacteria MIC; type: cell-based; details: NCTC8163; Erysipelothrix rhusiopathiae NCTC 8163; Diagnostic Sensitivity Test Agar, 18 hours 37° C.; read-out: M.I.C.
Procedure: as §1

Staph. aureus Oxford = assay: Veterinary bacteria MIC; type: cell-based; details: Staphylococcus aureus, Diagnostic Sensitivity Test Agar, 18 hours 37° C.
Procedure: as §1

[5] = test system: Strep. suis (Group D) SPS11; assay: Veterinary bacteria MIC; type: cell-based; details: Streptococcus suis; Strep. suis (Group D) SPS11; Diagnostic Sensitivity Test Agar, 18 hours 37° C.; read-out: M.I.C.
Procedure: as §1

Bord. brochiasetpica B09 = assay: Veterinary bacteria MIC; type: cell-based; details: Diagnostic Sensitivity Test Agar, 18 hours 37° C.
Procedure: as §1

E. coli NCTC 10418 = assay: Veterinary bacteria MIC; type: cell-based; details: Escherichia coli, NCTC10418; E. coli NCTC 10418; Diagnostic Sensitivity Test Agar, 18 hours 37° C.; read-out: M.I.C.
Procedure: as §1

Strep. uberis SPU1 = assay: Veterinary bacteria MIC; type: cell-based; details: Streptococcus uberis, Diagnostic Sensitivity Test Agar, 18 hours 37° C.
Procedure: as §1

Past. multocida PA2 = assay: Veterinary bacteria MIC; type: cell-based; details: Pasteurella multocida; Past. multocida PA2; Diagnostic Sensitivity Test Agar, 18 hours 37° C.; read-out: M.I.C.
Procedure: as §1

[6] = test system: Staph. aureus B4 (pen. resistant); assay: Veterinary bacteria MIC; type: cell-based; details: Staphylococcus aureus, Diagnostic Sensitivity Test Agar, 18 hours 37° C.
Procedure: as §1

M. suipneumoniae MS16 = assay: Anti-mycoplasmal activity in vitro MIC; type: cell-based; details: Mesomycoplasma hyopneumoniae, MS16, 144 h
[7] = Serum binding by ultrafiltration; type: in vitro ADME; details: pig, porcine serum, 8 mcg/ml, read-out: % bound to pig serum (converted)
Procedure: Serum binding was assessed by ultrafiltration of porcine serum containing compounds at 8 mcg/ml, and through an Amicon CF50A ultrafiltration cone. Separation of ultrafiltrate was achieved by centrifugation. Unbound concentrations of compound were measured in the ultrafiltrate by microbiological assay (B. subtilis ATCC 6633) against standards prepared in saline.

M. pneumoniae ATCC 15492 = assay: Anti-mycoplasmal activity in vitro MIC; type: cell-based; details: Mycoplasmoides pneumoniae, ATCC15492, 144 h
M. dispar NCTC 10125 = assay: Anti-mycoplasmal activity in vitro MIC; type: cell-based; details: 144 h
Sarcina lutea 8340 = assay: Human bacteria MIC; type: cell-based; details: Micrococcus luteus; Sarcina lutea 8340; nutrient agar, 5% chocolated horse blood, 18 hours 37° C.; read-out: M.I.C.
Procedure: The values were determined by serial dilutions in nutrient agar with 5% chocolated horse blood after incubations for 18 hours at 37° C.

M. suipneumoniae UCD 1 = assay: Anti-mycoplasmal activity in vitro MIC; type: cell-based; details: Mesomycoplasma hyopneumoniae, UCD1, 144 h; M. suipneumoniae UCD 1; Friis broth, 0.9% agarose, 6 days 37° C.; read-out: M.I.C.
M. suipneumoniae NB12 = assay: Anti-mycoplasmal activity in vitro MIC; type: cell-based; details: Mesomycoplasma hyopneumoniae, 144 h; M. suipneumoniae NB12; Friis broth, 0.9% agarose, 6 days 37° C.; read-out: M.I.C.

## C/C(=C\C(=O)OC1CCC(=NO)CC1)C[C@@H]1OC[C@H](C[C@@H]2O[C@H]2[C@@H](C)[C@H](C)O)[C@@H](O)[C@H]1O (stereo partly shown) [Example 3, 4-Hydroxyiminocyclohexyl monate A]
M. bovis NCTC 10131
  MIC: ≤ 0.01 µg/mL
[1]
  MIC: 0.025 µg/mL (≈ 0.0549 µM)
M. hyorhinis ATCC 25021
  MIC: 0.25 µg/mL (≈ 0.549 µM)
M. gallisepticum S6
  MIC: 5 µg/mL (≈ 11 µM)
M. suipneumoniae LABER
  MIC: 0.25 µg/mL (≈ 0.549 µM)
M. suipneumoniae HK (2)
  MIC: 0.5 µg/mL (≈ 1.1 µM)
S. dublin S7
  MIC: > 80 µg/mL
[2]
  MIC: 1.25 µg/mL (≈ 2.74 µM)
E. coli El
  MIC: > 80 µg/mL
Strep. agalactiae SPA1
  MIC: 0.625 µg/mL (≈ 1.37 µM)
Bord. bronchiseptica B08
  MIC: > 80 µg/mL
Strep. dysgalactiae SPD1
  MIC: 0.312 µg/mL (≈ 0.685 µM)
Past. haemolytica PA5
  MIC: 5 µg/mL (≈ 11 µM)
S. typhimurium S18
  MIC: > 80 µg/mL
[3]
  MIC: > 80 µg/mL
Past. multocida PA1
  MIC: 1.25 µg/mL (≈ 2.74 µM)
[4]
  MIC: 10 µg/mL (≈ 22 µM)
Staph. aureus Oxford
  MIC: 1.25 µg/mL (≈ 2.74 µM)
[5]
  MIC: 2.5 µg/mL (≈ 5.49 µM)
Bord. brochiasetpica B09
  MIC: 20 µg/mL (≈ 43.9 µM)
E. coli NCTC 10418
  MIC: > 80 µg/mL
Strep. uberis SPU1
  MIC: 0.156 µg/mL (≈ 0.342 µM)
Past. multocida PA2
  MIC: 0.312 µg/mL (≈ 0.685 µM)
[6]
  MIC: 2.5 µg/mL (≈ 5.49 µM)
M. suipneumoniae MS16
  MIC: 0.25 µg/mL (≈ 0.549 µM)
[7]
  fraction unbound: 0.355
M. pneumoniae ATCC 15492
  MIC: 1 µg/mL (≈ 2.2 µM)
M. dispar NCTC 10125
  MIC: 0.1 µg/mL (≈ 0.22 µM)
Sarcina lutea 8340
  MIC: > 100 µg/mL
M. suipneumoniae UCD 1
  MIC: 0.5 µg/mL (≈ 1.1 µM)
M. suipneumoniae NB12
  MIC: 0.5 µg/mL (≈ 1.1 µM)
